In patent US20100120690A1, “Polypeptides Having Antimicrobial Activity and Polynucleotides Encoding Same” (Novozymes Adenium Biotech A/S, priority 2005, published 2010):

Columns and labels:
Staphylococcus carnosus = assay: TAPS (Trans Acting Peptide System) assay, radial diffusion read-out; format: cell-based; parameters: key: classified as 4>3>2>1; whereas 4 is better than 1; classified as 4>3>2>1; classified as 4>3>2>1; wildtype activity corresponds to 1; settings: peptide expressed in E. coli
Experimental: A range of antimicrobial polypeptides, which are variants of SEQ ID NO: 1, were tested in the TAPS assay. TAPS may be used to identify new or improved genes encoding peptides that can kill or inhibit the growth of target cells (see PCT application WO 2004/033715). The TAPS assay, an acronym for Trans Acting Peptide System, is based on having a sensitive host producing a peptide followed by screening for its activity in trans against an indicator strain. The advantage of this system is based on that the antimicrobial peptide is expressed in the Gram-negative bacterium E. coli and its antimicrobial activity can be monitored on different microbes including Gram-negatives, positives or fungi. Additionally, TAPS offers the possibility to produce correctly folded AMPs containing disulfide bonds in the host cells, thereby retaining their antimicrobial activities.
The TAPS approach requires first, that expression of the peptide is under control of an inducible promoter with tight regulation, because the host cells are sensitive to the peptide when producing it. Secondly, the produced peptide has to be released to the media so that it can interact with the target organism.
The TAPS screening can be carried out either in solid or liquid media. On solid media, a plasmid library is initially introduced into E. coli host cells. […] In the next step, the filter containing the colonies is transferred to LB growth medium containing inducer (0.1% arabinose) to permit peptide synthesis. Subsequently, the target strain, for example S. carnosus, is overlaid onto the plate and allowed to grow for 12-16 hours at 37° C. Finally, visual inspection of the host cells capable of reducing the proliferation of the target cells is performed and the nucleotide sequence encoding for the antimicrobial peptide is recovered from the host cells. DNA sequence analysis of the variants is obtained to elucidate the nature of the peptide.
As mentioned above, the TAPS screening can also be performed using liquid medium. This procedure requires the use of robotics to analyze large number of clones. In this system, the host E. coli origami cells are transformed with the plasmid library and plated out on LB medium+0.2% glucose+ampicillin (200 mg/L). Independent colonies are then inoculated into 96 or 384-well plates containing 200 micro-L of TB medium+ampicillin (200 mg/L) and cultured overnight at 37° C. These cultures are then replicated robotically and grown to exponential phase until inducer (0.1% arabinose) is added to trigger peptide synthesis. The next step consists in hydrolyzing the cells such that the peptide is released to the media by hot acid hydrolysis. This treatment consists on adding 1 M sodium Phosphate buffer pH 2.3 to obtain a final pH approximately of 2.3 and incubating the cultures overnight at 80° C. Next day, a 25 micro-L aliquot of the hydrolyzed cultures is used to perform an activity test against the desired target organisms. The activity test performed was a Radial Diffusion Assay (RDA) where an aliquot of the hydrolyzed cultures was added to the agarose media inoculated with the target strain, S. carnosus. […] Measurements of the diameter of the clearing zones were performed to quantify the potency of the antimicrobial activity of the peptides.
The antimicrobial activity (against Staphylococcus carnosus) of the tested plectasin variants, which was measured using the TAPS assay, is shown in table 3. The antimicrobial activity corresponds to the clearing zone size and has been classified as 4>3>2>1; whereas 4 is better than 1, and wildtype activity corresponds to 1.

[1] = test system: panel of 6 different strains of Staphylococcus aureus; assay: Average MIC, NCCLS/CLSI guidelines using caMHB (Example 6); format: cell-based; settings: average over 6 S. aureus strains, duplicate; MIC above 32 counted as 64; read after 18-24 hours at 37° C.
Method in brief: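 Six Staphylococcus aureus strains, MSSA and MRSA, were exposed in duplicate to peptide dilutions from 32 down to 0.03 microgram/mL in caMHB following CLSI guidance. Growth was scored after 18-24 h incubation at 37° C. The tabulated value is the mean MIC, with 64 used for any MIC >32 micrograms/mL.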

S. aureus = assay: Minimal Inhibitory Concentration, NCCLS guidelines (Example 4); format: cell-based, Staphylococcus aureus; settings: purified peptide
Experimental: (§1) The Minimal Inhibitory Concentration (MIC, micrograms/mL) was determined to test for their antimicrobial activity following the NCCLS guidelines (Clinical and Laboratory Standards Institute; formerly known as National Committee for Clinical and Laboratory Standards).

M. luteus = assay: as above; format: cell-based, Micrococcus luteus; settings: purified peptide
Experimental: as §1

B. subtilis = assay: as above; format: cell-based, Bacillus subtilis; settings: purified peptide
Experimental: as §1

[2] = test system: Staphylococcus aureus, ATCC 29213; assay: MIC, NCCLS/CLSI guidelines (Example 5), strain A; format: cell-based; settings: relative to wildtype Plectasin; average of two independent experiments
Method in brief: (§2)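 MICs of purified plectasin peptides are measured according to NCCLS/CLSI guidance. Each value averages duplicate independent experiments and is given as a category relative to wild-type: 0 above 100%, 1 80-100%, 2 50-80%, 3 below 50%.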

[3] = test system: Staphylococcus aureus, ATCC 25923; assay: MIC, NCCLS/CLSI guidelines (Example 5), strain B; format: cell-based; settings: relative to wildtype Plectasin; average of two independent experiments
Method in brief: as §2

[4] = test system: Staphylococcus aureus, ATCC 29737; assay: MIC, NCCLS/CLSI guidelines (Example 5), strain C; format: cell-based; settings: relative to wildtype Plectasin; average of two independent experiments
Method in brief: as §2

[5] = test system: Staphylococcus aureus, MRSA ST5 (2001); assay: MIC, NCCLS/CLSI guidelines (Example 5), strain D; format: cell-based; settings: relative to wildtype Plectasin; average of two independent experiments
Method in brief: (§3)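 Recombinant plectasin variants, expressed and purified; MIC per NCCLS/CLSI; n=2 independent expts, averaged; reported as category vs wild-type MIC (0 >100%, 1 80-100%, 2 50-80%, 3 <50%).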

[6] = test system: Staphylococcus aureus, MRSA ST80 (2003); assay: MIC, NCCLS/CLSI guidelines (Example 5), strain E; format: cell-based; settings: relative to wildtype Plectasin; average of two independent experiments
Method in brief: as §3

Substance | Activity (antimicrobial activity, clearing zone size) (Staphylococcus carnosus) | Average MIC [1] [micrograms/mL] | further results
GFGCKGPWDEDDMQCHNHCKSIKGYKGGYCAKGGFVCKCY [Mutation N5K] | 2 | 12 | 
GFGCNGPWDEDDKQCHNHCKSIKGYKGGYCAKGGFVCKCY [Mutation M13K] | 3 | 12 | 
GFGCNGPWDEDDKQCHNHCKSIKGYKGGYCAKGGFVCKCYR [M13K + Y40YR] | 4 | 12 | MIC against S. aureus (S. aureus): 2 micrograms/mL; MIC against M. luteus (M. luteus): 2 micrograms/mL; MIC against B. subtilis (B. subtilis): 0.25 micrograms/mL
GFGCNGPWDEDDKQCHNHCKSIKGYKGGYCAKGGFVCRCY [M13K + K38R] | 4 | 6 | Relative MIC, strain A [2]: 1 (80-100% of Plectasin wildtype MIC); Relative MIC, strain B [3]: 3 (<50% of Plectasin wildtype MIC); Relative MIC, strain C [4]: 3 (<50% of Plectasin wildtype MIC); Relative MIC, strain D [5]: 2 (50-80% of Plectasin wildtype MIC); Relative MIC, strain E [6]: 3 (<50% of Plectasin wildtype MIC)
GFGCNGPWDEDDKQCHNHCKSIKGYRGGYCAKGGFVCKCY [M13K + K26R] | 4 | 10 | 
GFGCNGPWDEDDKQCHRHCKSIKGYKGGYCAKGGFVCKCY [M13K + N17R] | 3 |  | 
GFGCNGPWDEDDKQCHRHCKSIKGYKGGYCAKGGFVCKCYR [M13K + N17R + Y40YR] | 3 | 8 | 
GFGCNGPWDEDDMLCHNHCKSIKGYKGGYCAKGGFVCKCY [Mutation Q14L] | 4 | 13 | 
GFGCNGPWDEDDMQCHHHCKSIKGYKGGYCAKGGFVCKCY [Mutation N17H] | 4 |  | 
GFGCNGPWDEDDMQCHIHCKSIKGYKGGYCAKGGFVCKCY [Mutation N17I] | 2 | 14 | 
GFGCNGPWDEDDMQCHNHCKFIKGYKGGYCTKGGFVCKCY [S21F + A31T] | 2 |  | 
GFGCNGPWDEDDMQCHNHCKSIKGYRGGYCAKGGFVCKCY [Mutation K26R] | 3 | 15 | 
GFGCNGPWDEDDMQCHNHCRSIKGYKGGYCAKGGFVCKCY [Mutation K20R] | 2 |  | 
GFGCNGPWDEDDMQCHRHCKSIKGYKGGYCAKGGFVCKCYR [N17R + Y40YR] | 3 |  | 
GFGCNGPWDEDDMQCHYHCKSIKGYKGGYCAKGGFVCKCY [Mutation N17Y] | 3 | 6 | Relative MIC, strain A [2]: 1 (80-100% of Plectasin wildtype MIC); Relative MIC, strain B [3]: 3 (<50% of Plectasin wildtype MIC); Relative MIC, strain C [4]: 3 (<50% of Plectasin wildtype MIC); Relative MIC, strain D [5]: 2 (50-80% of Plectasin wildtype MIC); Relative MIC, strain E [6]: 2 (50-80% of Plectasin wildtype MIC)
GFGCNGPWDEDDMRCHNHCKSIKGYKGGYCAKGGFICKCY [Q14R + V36I] | 4 |  | 
GFGCNGPWDEDDMRCHNHCKSIKGYKGGYCAKGGFVCKCY [Mutation Q14R] | 4 | 5 | Relative MIC, strain A [2]: 2 (50-80% of Plectasin wildtype MIC); Relative MIC, strain B [3]: 3 (<50% of Plectasin wildtype MIC); Relative MIC, strain C [4]: 3 (<50% of Plectasin wildtype MIC); Relative MIC, strain D [5]: 3 (<50% of Plectasin wildtype MIC); Relative MIC, strain E [6]: 0 (>100% of Plectasin wildtype MIC)
GFGCNGPWDEDDMRCHNHCKSIKGYKGGYCAKGGFVCKCYR [Q14R + Y40YR] | 3 |  | 
GFGCNGPWDEDDMRCHNHCKSIKGYRGGYCAKGGFVCKCY [Q14R + K26R] | 4 | 5 | 
GFGCNGPWDEGDKQCHNHCKSIKGYRGGYCAKGGFVCKCY [D11G + M13K + K26R] | 3 |  | 
GFGCNGPWDEGDKQCHNHCKSIKGYRGGYCAKGGFVCKCYR [D11G + M13K + K26R + Y40YR] | 4 | 12 | MIC against S. aureus (S. aureus): 0.50 micrograms/mL; MIC against M. luteus (M. luteus): 0.50 micrograms/mL; MIC against B. subtilis (B. subtilis): <0.03 micrograms/mL
GFGCNGPWDENDMQCHNHCKFIKGYKGGYCAKGGFVCKCY [D11N + S21F] | 4 |  | 
GFGCYGPWDEDDMLCHNHCKSIKGYKGGYCAKGGFVCKCY [N5Y + Q14L] | 2 |  | 
GFGCYGPWDEDDMQCHNHCKSIKGYKGGYCAKGGFVCKCY [Mutation N5Y] | 2 |  | 
Q14K + K26R: variant of Plectasin (SEQ ID NO: 1) (GFGCNGPWDEDDMKCHNHCKSIKGYRGGYCAKGGFVCKCY) |  | 6 | MIC against S. aureus (S. aureus): 2 micrograms/mL; MIC against M. luteus (M. luteus): 1 micrograms/mL; MIC against B. subtilis (B. subtilis): 0.13 micrograms/mL; Relative MIC, strain A [2]: 3 (<50% of Plectasin wildtype MIC); Relative MIC, strain B [3]: 2 (50-80% of Plectasin wildtype MIC); Relative MIC, strain C [4]: 3 (<50% of Plectasin wildtype MIC); Relative MIC, strain D [5]: 3 (<50% of Plectasin wildtype MIC); Relative MIC, strain E [6]: 3 (<50% of Plectasin wildtype MIC)
